Source: patent US20230293519A1, “INTEGRIN INHIBITORS AND USES THEREOF IN COMBINATION WITH OTHER AGENTS” (Pliant Therapeutics, Inc., priority 2021, published 2023)

Tests used:
COL1A1 expression = assay: PCLS from human IPF lung tissue, 7 days: COL1A1 expression; type: cell-based
Method: PCLS from 5-7 idopathic pulmonary fibrosis (IPF) lung tissue samples were cultured for seven days with one of: DMSO; Compound 5 at 200 nM; nintedanib at 75 nM; pirfenidone at 50 µm; a combination of Compound 5 at 200 nM and nintedanib at 75 nM; a combination of Compound 5 at 200 nM and pirfenidone at 50 µm; or an Alk5 inhibitor at 1 µm. […] FIG. 6D is a bar graph showing relative expression of COL1A1 in precision cut lung slices (PCLS) from idopathic pulmonary fibrosis (IPF) lung tissue upon exposure to Comopund 5, clinical standard of care compounds nintedanib (Nin) and pirfenidone (Pirf), and an ALK5 inhibitor, all versus DMSO control.
PCLS from a single IPF lung tissue sample were cultured for seven days with Compound 5 at concentrations of 200 pM, 2 nM, 60 nM, 200 nM, and 1 µM, along with 0.1% DMSO control and an Alk5 inhibitor at 1 µM. […] COL1A1 expression is also graphed for the PCLS in the presence of 0.1% DMSO control, and an Alk5 inhibitor at 1 µM.

αvβ6 = αvβ6 (Homo sapiens (Human), UniProt P06756+P18564); assay: [18F]FP-R01-MG-F2 PET/CT target engagement in participants with IPF; type: in vivo
Method: The aim of this Example is to assess target engagement of the disclosed compounds to αvβ6 in human participants with IPF using [^18F]FP-R01-MG-F2 PET/computerized tomography (CT) imaging.
This Example was conducted as an open-label, single-dose (60 mg, 120 mg, 240 mg or 320 mg) clinical trial evaluating αvβ6 receptor occupancy in the lungs, safety, and pharmacokinetics of Compound #5 in subjects with IPF. To date, 4 participants have completed the study. Each of these 4 participants was undergoing a pre-existing course of therapy using one of the SoC (Standard of Care) compounds, nintedanib. These participants continued their pre-existing nintedanib therapy throughout this study. Knottin tracer uptake kinetics were compared pre- and post-dose of the disclosed compound, as measured by standardized uptake values (SUVs) and parameters estimated from kinetic modeling in regions-of-interest on dynamic [^18F]FP-R01-MG-F2 PET/CT scans. […] Receptor occupancy was estimated from the output of the two-compartment model (VT, the […]) using standard equations and fitting algorithms, and corrections for VND (non-displaceable tracer binding). For example, in FIG. 10, the data points, shown as circles, are modeled by the following formula: […]
Five subjects with IPF were enrolled: Subject A received a single dose of 60 mg of the disclosed compound followed by a post-dose scan. Subject B received two doses of the disclosed compound separated by two weeks, 120 mg and 240 mg, each followed by a post-dose scan. Subject C received two doses of the disclosed compound separated by two weeks, 240 mg and 320 mg, each followed by a post-dose scan. Subject D received a single dose of 320 mg of the disclosed compound followed by a post-dose scan.

lung Col1a1 expression = assay: Precision cut lung slices of mice under chronic bleomycin exposure (vs pirfenidone and nintedanib); type: cell-based, mouse; conditions: slices cultured 7 days; nintedanib and pirfenidone at 10x therapeutic concentrations
Method: Mice (C57BL/6) were administered 3 U/kg of bleomycin (Teva Pharmaceuticals; North Wales, PA) on Day 0 and 1 U/kg of bleomycin on days 14, 28, 42 and 56 via oropharyngeal aspiration while under anesthesia. At day 70, 14 days following the final bleomycin insult, precision cut lung slices were obtained. Following euthanization, 2% low gelling temp agarose was injected into the mouse lungs via the trachea. […] The lobes were then subjected to precision slicing to obtain samples for culture using a microtome (Compresstome VF-300-0Z, Precisionary; Greenville, NC). Individual slices were distributed in a multiwell culture plate and cultured for 7 days under control (DMSO) and test compound conditions. The viability of the slices over the course of culturing was confirmed by WST-1 assay of mitochondrial activity.
During the culture period, slices in the control group were treated with DMSO and slices in the test group were treated with a DMSO solution of one of: compound 5; nintedanib; pirfenidone; a combination of nintedanib and compound 5; a combination of pirfenidone and compound 5; or the small molecule ALK5 inhibitor. Compound 5 was […] effective to equal or exceed its respective IC50 values at αvβ6 and αvβ1. The small molecule ALK5 inhibitor was analyzed at 10x its reported IC50 value. Nintendanib and pirfenidone were analyzed at concentrations 10x their reported therapeutic concentrations.

pSMAD2:SMAD2 ratio = pSMAD2:SMAD2 ratio in BAL of healthy human subjects; type: in vivo; conditions: subjects with Cmax above 700 ng/mL; Day 7 vs baseline (Day -1)
Method: In order to evaluate the change of pSMAD2 as a biomarker of TGF-β activity following administration of an integrin inhibitor, and to determine a therapeutically effective dosage and an effective blood plasma Cmax of the integrin inhibitor, healthy subjects were administered compound 5, a dual selective αvβ6/avβ1-integrin inhibitor, and the corresponding Cmax levels and decrease in phosphorylation levels and were determined.
Healthy non-smoking adult males without history of lung disease were selected as subjects and were randomized into 4 cohorts. Broncoalevaolar lavage samples were obtained from all subjects 1 day prior to start of treatment. Cohorts 1 and 2 were administered 20 mg of a compound daily, wherein 3 subjects were administered the dual selective αvβ6/αvβ1-integrin inhibitor (compound 5) per every 1 subject receiving a placebo compound. Cohorts 3 and 4 were administered 40 mg of a compound daily, wherein 3 subjects were administered the dual selective αvβ6/αvβ1- integrin inhibitor (compound 5) per every 1 subject receiving a placebo compound. BAL samples and blood samples were taken from all subjects on Day -1 (baseline) and on Day 7 (end of treatment).

Chain of αvβ6 (P06756 31-889): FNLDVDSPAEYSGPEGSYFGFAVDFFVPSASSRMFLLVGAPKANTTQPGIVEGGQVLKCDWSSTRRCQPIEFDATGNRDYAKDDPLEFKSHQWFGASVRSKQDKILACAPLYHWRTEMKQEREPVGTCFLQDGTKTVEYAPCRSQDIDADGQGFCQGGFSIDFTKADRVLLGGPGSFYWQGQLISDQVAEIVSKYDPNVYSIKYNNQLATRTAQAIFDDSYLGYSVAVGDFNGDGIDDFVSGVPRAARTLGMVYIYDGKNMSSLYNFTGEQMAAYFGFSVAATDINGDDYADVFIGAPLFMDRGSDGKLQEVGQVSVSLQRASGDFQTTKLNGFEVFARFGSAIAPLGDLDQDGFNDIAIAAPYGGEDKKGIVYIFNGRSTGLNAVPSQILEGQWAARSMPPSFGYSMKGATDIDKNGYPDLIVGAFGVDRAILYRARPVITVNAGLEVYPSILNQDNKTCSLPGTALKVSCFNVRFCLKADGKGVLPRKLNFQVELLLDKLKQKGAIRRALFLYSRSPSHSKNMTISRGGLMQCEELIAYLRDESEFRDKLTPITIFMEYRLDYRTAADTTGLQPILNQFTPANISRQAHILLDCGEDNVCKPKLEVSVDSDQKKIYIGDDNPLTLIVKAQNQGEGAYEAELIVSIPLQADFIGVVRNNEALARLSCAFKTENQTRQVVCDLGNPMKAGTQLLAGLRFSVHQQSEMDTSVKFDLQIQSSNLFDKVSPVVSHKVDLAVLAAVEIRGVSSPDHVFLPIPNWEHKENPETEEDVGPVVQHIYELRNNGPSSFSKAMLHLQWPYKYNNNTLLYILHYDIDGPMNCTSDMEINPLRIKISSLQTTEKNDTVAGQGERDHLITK
Chain of αvβ6 (P06756 890-1048 partner): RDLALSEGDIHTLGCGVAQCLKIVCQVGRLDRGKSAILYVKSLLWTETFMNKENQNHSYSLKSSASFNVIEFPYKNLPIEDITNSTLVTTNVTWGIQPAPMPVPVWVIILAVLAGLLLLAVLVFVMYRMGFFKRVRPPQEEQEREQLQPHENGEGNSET
Chain of αvβ6 (P18564 22-788): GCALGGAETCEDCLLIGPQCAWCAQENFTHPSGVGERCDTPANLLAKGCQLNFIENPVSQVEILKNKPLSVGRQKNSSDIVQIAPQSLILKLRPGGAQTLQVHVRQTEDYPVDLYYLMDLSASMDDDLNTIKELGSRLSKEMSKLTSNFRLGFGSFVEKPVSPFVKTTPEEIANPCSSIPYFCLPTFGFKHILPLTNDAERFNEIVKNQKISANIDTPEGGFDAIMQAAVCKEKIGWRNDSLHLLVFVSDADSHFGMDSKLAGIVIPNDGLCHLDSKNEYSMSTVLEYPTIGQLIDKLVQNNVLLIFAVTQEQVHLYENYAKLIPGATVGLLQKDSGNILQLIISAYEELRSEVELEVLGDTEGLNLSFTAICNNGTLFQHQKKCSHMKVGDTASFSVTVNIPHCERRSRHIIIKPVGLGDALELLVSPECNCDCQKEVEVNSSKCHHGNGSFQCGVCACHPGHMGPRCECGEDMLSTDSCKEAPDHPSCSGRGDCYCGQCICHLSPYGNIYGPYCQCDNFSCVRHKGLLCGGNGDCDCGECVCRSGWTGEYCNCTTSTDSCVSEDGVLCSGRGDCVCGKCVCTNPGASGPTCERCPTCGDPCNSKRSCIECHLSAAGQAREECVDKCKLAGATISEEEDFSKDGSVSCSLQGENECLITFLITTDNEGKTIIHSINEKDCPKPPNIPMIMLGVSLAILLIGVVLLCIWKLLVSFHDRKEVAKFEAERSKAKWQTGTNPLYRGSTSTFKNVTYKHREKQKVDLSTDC

## COCCN(CCCCc1ccc2c(n1)NCCC2)CC[C@H](Nc1ncnc2ccccc12)C(=O)O [Compound 5, (S)-4-((2-methoxyethyl)(4-(5,6,7,8-tetrahydro-1,8-naphthyridin-2-yl)butyl)amino)-2-(quinazolin-4-ylamino)butanoic acid]
COL1A1 expression; Compound 5 200 nM, nintedanib 75 nM, pirfenidone 50 µM, 5-7 IPF lungs
  reduction of COL1A1 expression: 43%
COL1A1 expression; single IPF lung, 200 pM to 1 µM tested
  concentration with significant reduction of COL1A1 expression: ≥ 2 nM
COL1A1 expression; single IPF lung, Compound 5 ≥ 2 nM
  reduction in COL1A1 expression at concentrations with significant effect: ≥ 47%
αvβ6; 60 mg dose
  decrease in volume of distribution of the knottin radiotracer in the lungs: approximately 50%
αvβ6; 240 and 320 mg doses
  decrease in volume of distribution of the knottin radiotracer in the lungs: greater than 95%
αvβ6; Subject A00, 60 mg single dose
  %DeltaVt: 52.23%
  Vs (Vt corrected for non-displaceable binding, VND=0.66): 1.18
  Vt (post-dose): 1.84
αvβ6; Subject B120, 120 mg
  %DeltaVt: 58.76%
  Vs (Vt corrected for non-displaceable binding, VND=0.66): 0.99
  Vt (post-dose): 1.65
αvβ6; Subject B240, 240 mg
  %DeltaVt: 97.56%
  Vs (Vt corrected for non-displaceable binding, VND=0.66): 0.06
  Vt (post-dose): 0.72
αvβ6; Subject C240, 240 mg
  %DeltaVt: 70.91%
  Vs (Vt corrected for non-displaceable binding, VND=0.66): 0.32
  Vt (post-dose): 0.98
αvβ6; Subject C320, 320 mg
  %DeltaVt: 82.73%
  Vs (Vt corrected for non-displaceable binding, VND=0.66): 0.19
  Vt (post-dose): 0.85
αvβ6; Subject D320, 320 mg
  %DeltaVt: 93.57%
  Vs (Vt corrected for non-displaceable binding, VND=0.66): 0.09
  Vt (post-dose): 0.75
αvβ6; lungs of IPF participants
  αvβ6 receptor occupancy: about 100%
αvβ6; measured drug exposure at 4 hours
  concentration at which the exposure response saturates: about 100 nM
Lung Col1a1 expression
  lung Col1a1 expression vs DMSO control: substantial, statistically significant
pSMAD2:SMAD2 ratio
  reduction in pSMAD2:SMAD2 ratio in BAL: ≥ 50%
